In US20260272983A1, “METHODS AND COMPOSITIONS FOR TREATING AUTOIMMUNE DISEASES” (priority 2023, published 2026):

Test system: subject having an autoimmune disease
Format: in vivo, human
Settings: IV cyclophosphamide regimen of TABLE 1, no fludarabine, before CAR T infusion
Text: T cells are obtained from a subject having an autoimmune disease (for example, an autoimmune disease selected from (SLE), lupus nephritis, SLE with anti-dsDNA antibodies, pemphigus vulgaris (PV), mucosal PV, mucocutaneous PV, myasthenia gravis (MG), MuSK-associated MG, AChR MG, myositis, membranous nephropathy, anti-synthetase syndrome, dermatomyositis, immune mediated necrotizing myopathy, multiple sclerosis, neuromyelitis optica, chronic inflammatory demyelinating polyneuropathy, anti-NMDA Receptor encephalitis, Lambert-Eaton syndrome, pemphigus foliaceus, epidermolysis bullosa acquisita, bullous pemphigoid, Goodpasture's syndrome, rheumatoid arthritis, systemic sclerosis, anti-neutrophil cytoplasmic antibody (ANCA)-associated vasculitis, immune thrombocytopenic purpura, antiphospholipid syndrome, autoimmune hemolytic anemia, type 1 diabetes, Grave's disease, Hashimoto's disease, and Sjogren's syndrome). […]
A dose of CAR T cells (e.g., from 1×10^6 to 1×10^7 cells/kg bodyweight) is intravenously administered to the subject. The subject is monitored post-infusion for B-cell levels, white blood cell count, CAR T cell levels, and for autoimmune disease markers (e.g., autoantibody levels).

O=P1(N(CCCl)CCCl)NCCCO1 (stereo not shown) [cyclophosphamide]
effectiveness of the cyclophosphamide preconditioning regimen used prior to CD19-CAR T cell therapy in treating the autoimmune disease: effective in the treatment of the autoimmune disease
